Measured values as given in ChEMBL document CHEMBL4428067, “Drug Discovery against Psoriasis: Identification of a New Potent FMS-like Tyrosine Kinase 3 (FLT3) Inhibitor, 1-(4-((1H-Pyrazolo[3,4-d]pyrimidin-4-yl)oxy)-3-fluorophenyl)-3-(5-(tert-butyl)isoxazol-3-yl)urea, That Showed Potent Activity in a Psoriatic Animal Model” (J Med Chem, 2016).

target: T1, Receptor-type tyrosine-protein kinase FLT3 (Homo sapiens, UniProt P36888); assay: Inhibition of recombinant human N-terminal GST-tagged FLT3 (564 to end residues) expressed by baculovirus in Sf21 insect cells measured after 10 mins in presence of [gamma-33P]ATP by scintillation counter method
T1 sequence (P36888 whole entry): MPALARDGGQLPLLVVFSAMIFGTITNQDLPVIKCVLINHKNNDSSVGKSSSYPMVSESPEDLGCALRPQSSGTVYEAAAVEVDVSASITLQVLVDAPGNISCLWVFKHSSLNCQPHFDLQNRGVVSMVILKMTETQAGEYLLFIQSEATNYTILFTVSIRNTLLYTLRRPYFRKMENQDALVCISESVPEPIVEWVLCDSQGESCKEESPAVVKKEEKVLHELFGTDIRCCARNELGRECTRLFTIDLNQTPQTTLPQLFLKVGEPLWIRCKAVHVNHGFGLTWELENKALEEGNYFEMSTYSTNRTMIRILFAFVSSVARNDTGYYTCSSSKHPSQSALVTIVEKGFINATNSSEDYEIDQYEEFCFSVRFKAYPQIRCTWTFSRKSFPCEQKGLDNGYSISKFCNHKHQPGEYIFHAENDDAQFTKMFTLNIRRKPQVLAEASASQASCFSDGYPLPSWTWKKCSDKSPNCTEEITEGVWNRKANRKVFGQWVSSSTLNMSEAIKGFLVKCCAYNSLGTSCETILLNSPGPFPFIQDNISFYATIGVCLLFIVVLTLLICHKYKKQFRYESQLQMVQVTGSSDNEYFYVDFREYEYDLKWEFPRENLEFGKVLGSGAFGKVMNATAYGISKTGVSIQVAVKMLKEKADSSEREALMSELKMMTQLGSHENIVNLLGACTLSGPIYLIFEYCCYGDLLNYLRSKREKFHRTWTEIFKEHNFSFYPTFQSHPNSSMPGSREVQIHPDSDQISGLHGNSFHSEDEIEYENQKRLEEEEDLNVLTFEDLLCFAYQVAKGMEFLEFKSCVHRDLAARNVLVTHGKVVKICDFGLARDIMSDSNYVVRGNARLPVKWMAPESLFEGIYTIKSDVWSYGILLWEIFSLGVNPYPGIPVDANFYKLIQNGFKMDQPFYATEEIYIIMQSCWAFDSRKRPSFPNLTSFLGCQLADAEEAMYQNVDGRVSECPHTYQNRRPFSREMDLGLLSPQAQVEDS

Point of comparison: `Cn1nc(C(C)(C)C)cc1NC(=O)Nc1ccc(Oc2ncnc3[nH]ncc23)c(F)c1`, IC50 66 nM. Against it:
- CC(C)(C)c1cc(NC(=O)Nc2ccc(Oc3ncnc4[nH]ncc34)c(Cl)c2)no1 — 33-fold lower, 2 nM
- CC(C)(C)c1cc(NC(=O)Nc2ccc(Oc3ncnc4[nH]ncc34)cc2)n(C(=O)O)n1 — 6.6-fold lower, 10 nM
- CC(C)(C)c1cc(NC(=O)Nc2ccc(Oc3ncnc4[nH]ncc34)cc2)n(C2CCCC2)n1 — within 1.5-fold, 52 nM
- CC(C)(C)c1cc(NC(=O)Nc2ccc(Oc3ncnc4[nH]ncc34)cc2)no1 — 6-fold lower, 11 nM
- CC(C)c1cc(NC(=O)Nc2ccc(Oc3ncnc4[nH]ncc34)cc2)n(C)n1 — within 1.5-fold, 82 nM
- CC(C)(C)c1cc(NC(=O)Nc2ccc(Oc3ncnc4[nH]ncc34)c(F)c2)n(C2CCCC2)n1 — within 1.5-fold, 53 nM
- CC(C)(C)c1cc(NC(=O)Nc2ccc(Oc3ncnc4[nH]ncc34)cc2)on1 — 8.2-fold lower, 8 nM
- Cn1ncc2c(Oc3ccc(NC(=O)Nc4cc(C(C)(C)C)on4)cc3)ncnc21 — 2.4-fold lower, 27 nM
- O=C(Nc1ccc(Oc2ncnc3[nH]ncc23)cc1)Nc1cc(C(F)(F)F)on1 — 2.4-fold lower, 28 nM
- CC(C)(C)c1cc(NC(=O)Nc2ccc(Oc3ncnc4c3cnn4CCN3CCOCC3)cc2)no1 — 6.8-fold higher, 449 nM
- Cc1cc(NC(=O)Nc2cc(C(C)(C)C)on2)ccc1Oc1ncnc2[nH]ncc12 — 11-fold lower, 6 nM
- CC(C)n1ncc2c(Oc3ccc(NC(=O)Nc4cc(C(C)(C)C)on4)cc3)ncnc21 — 3.3-fold higher, 217 nM
- CC(C)(C)c1cc(NC(=O)Nc2ccc(Oc3ncnc4[nH]ncc34)c(F)c2)n(-c2ccc(F)cc2)n1 — 1.6-fold lower, 42 nM
- Cc1cc(Oc2ncnc3[nH]ncc23)ccc1NC(=O)Nc1cc(C(C)(C)C)on1 — 10-fold higher, 657 nM
- O=C(Nc1ccc(Oc2ncnc3[nH]ncc23)cc1)Nc1nc(-c2ccccc2)cs1 — within 1.5-fold, 73 nM
- CC(C)(C)c1csc(NC(=O)Nc2ccc(Oc3ncnc4[nH]ncc34)cc2)n1 — 8.2-fold lower, 8 nM
- Cn1nc(C(C)(C)C)cc1NC(=O)Nc1ccc(Oc2ncnc3[nH]ncc23)cc1 — within 1.5-fold, 62 nM
- O=C(Nc1ccc(Oc2ncnc3[nH]ncc23)cc1)Nc1nc2ccccc2s1 — 4.5-fold higher, 294 nM
- CN(C)CCCn1ncc2c(Oc3ccc(NC(=O)Nc4cc(C(C)(C)C)on4)cc3)ncnc21 — within 1.5-fold, 80 nM
- CC(C)(C)c1cc(NC(=O)Nc2ccc(Oc3ncnc4[nH]ncc34)c(F)c2)n(-c2ccccc2)n1 — within 1.5-fold, 56 nM
- Cn1nc(C(F)(F)F)cc1NC(=O)Nc1ccc(Oc2ncnc3[nH]ncc23)cc1 — 1.7-fold lower, 38 nM
- CC(C)(C)c1cc(NC(=O)Nc2ccc(Oc3ncnc4[nH]ncc34)cc2)n(-c2ccccc2)n1 — within 1.5-fold, 50 nM
- CC(C)(C)c1cc(NC(=O)Nc2ccc(Oc3ncnc4[nH]ncc34)cc2F)no1 — 11-fold lower, 6 nM
- Cn1nc(C(F)(F)F)cc1NC(=O)Nc1ccc(Oc2ncnc3[nH]ncc23)c(F)c1 — 1.8-fold lower, 36 nM
